Results taken from patent publication US11305012B2, “Binding molecules specific for HER3 and uses thereof” (MedImmune, LLC, priority 2013, dated 2022).

Columns and labels:
[1] = tested on: human MCF-7 breast cancer xenograft; test: Orthotopic human MCF-7 breast cancer xenograft model; type: in vivo, mouse; settings: MCF-7 orthotopic, 10 mg/kg
Experimental: Human MCF-7 breast cancer cells were maintained at 37° C. in a 5% CO2 incubator in Optimem medium containing glutamax, 2.4/L sodium bicarbonate, Hepes and 5% fetal bovine serum. Orthotopic xenografts were established by injecting 5×10^6 cells per mouse (suspended in 50% matrigel) into the mammary fat pad on the right flank of 4 to 6-week-old athymic nu/nu mice. Estrogen pellets (0.36 mg) were placed under the skin of the left flank 1-2 days before cell injection. […] Paclitaxel was administered intravenously at 10 mg per kilogram body weight. Caliper measurements were used to calculate tumor volumes using the formula: tumor volume=π÷6(length×width×width) • for tumors grown in mice.

[2] = tested on: HER3, pHER3 and pAKT in SW620, SW480, Colo205, LOVO, HCT15, Caco-2; test: HRG-stimulated HER3 signaling in CRC tumor cell lines (Western); type: cell-based, human; settings: antibodies 10 μg/mL, gefitinib 5 μM, HRG 50 ng/mL
Experimental: In the presence of the HER3 ligand heregulin (HRG), HER3 heterodimerizes with EGFR or HER2, which leads to phosphorylation of HER3 and transmission of an oncogenic signal via phosphoinositide 3 kinase (PI3K) and protein kinase B (PKB), also known as AKT. A collection of CRC models were characterized to determine which receptor tyrosine kinase, EGFR or HER2, is the major driver of signaling through HER3. […] Briefly, cells were seeded into 24-well plates at a density of 1.5×10^5 cells per well. […] After 5-6 hours of incubation at 37° C., HRG was added at 50 ng/mL into one set of cells for 15 minutes at 37° C. All cells were then washed with cold PBS and lysed by the addition of 60 μL of 2×SDS (sodium dodecyl sulfate) sample buffer (Invitrogen). Lysates were transferred to 1.5 mL tubes and boiled for 5 minutes followed by chilling on ice for 2 minutes. Equal volumes (20 μL) of protein samples were resolved in NuPAGE Novex Bis-Tris gels (Invitrogen) before transfer to polyvinylidene fluoride (PVDF) membranes (Invitrogen). […] After washing, protein bands were detected on X-ray film by using SuperSignal West Pico Chemiluminescent Substrate (Pierce/Thermo Scientific).

BT-474 xenografts = test: Orthotopic human BT-474 breast cancer xenograft model; type: in vivo, mouse; settings: BT-474 orthotopic, antibodies 30 mg/kg, lapatinib 100 mg/kg
Experimental: (§1) Orthotopic xenografts were established by injecting 1×10^7 cells per mouse (suspended in 50% matrigel) into the mammary fat pad on the right flank of 4 to 6-week-old athymic nu/nu mice. Estrogen pellets (0.36 mg) were placed under the skin of the left flank 1-2 days before cell injection. […] Lapatinib was administered by oral gavaging at 100 mg per kilogram body weight. Caliper measurements were used to calculate tumor volumes using the formula: tumor volume=π÷6(length×width×width) • for tumors grown in mice.

MDA-MB-361 xenografts = test: Orthotopic human MDA-MB-361 breast cancer xenograft model; type: in vivo, mouse; settings: trastuzumab and rhuMAb 2C4 10 mg/kg, lapatinib 100 mg/kg twice daily, 2C2-YTE 30 mg/kg
Experimental: as §1, with “5×10^6” for “1×10^7”

[3] = tested on: JIMT-1 breast cancer xenografts; test: Orthotopic human JIMT-1 breast cancer xenograft model; type: in vivo, mouse
Experimental: Orthotopic xenografts were established by injecting 5×10^6 cells per mouse (suspended in 50% matrigel) into the mammary fat pad on the right flank of 4 to 6-week-old athymic nu/nu mice. […] Treatment with antibodies were administered starting at day 8 post-implantation of JIMT-1 cells. […]

[4] = 10 mpk (each), day 32 post-implantation of JIMT-1 cells, vs control IgG1

## CC(=O)O[C@H]1C(=O)[C@@]2(C)[C@H]([C@H](OC(=O)c3ccccc3)[C@]3(O)C[C@H](OC(=O)[C@H](O)[C@@H](NC(=O)c4ccccc4)c4ccccc4)C(C)=C1C3(C)C)[C@]1(OC(C)=O)CO[C@@H]1C[C@@H]2O [Paclitaxel, paclitaxel, reference compound]
[1]
  anti-tumor efficacy (in words): clear anti-tumor efficacy

## COc1cc2ncnc(Nc3ccc(F)c(Cl)c3)c2cc1OCCCN1CCOCC1 [gefitinib]
[2]
  effect on HRG ligand-dependent signaling (HER3, pHER3, pAKT; in words): no effect

## CS(=O)(=O)CCNCc1ccc(-c2ccc3ncnc(Nc4ccc(OCc5cccc(F)c5)c(Cl)c4)c3c2)o1 [lapatinib, reference compound]
BT-474 xenografts
  anti-tumor efficacy (in words): tumor stasis
MDA-MB-361 xenografts
  anti-tumor efficacy (in words): showed anti-tumor efficacy

## pertuzumab [RhuMAb 2C4, reference compound]
[3]; [4]
  % TGI: 13.64%
  % dTGI: 17.42%
[3]; JIMT-1, 10 mg/kg (each)
  anti-tumor efficacy (in words): did not result in any significant reduction
[2]
  effect on HRG ligand-dependent signaling (HER3, pHER3, pAKT; in words): inhibit HRG ligand-dependent signaling
MDA-MB-361 xenografts
  anti-tumor efficacy (in words): showed anti-tumor efficacy
